We go through four compounds from paper PMC10384011, “m-Terphenylamines, Acting as Selective COX-1 Inhibitors, Block Microglia Inflammatory Response and Exert Neuroprotective Activity” (Molecules, 2023).

Assay [1] deals with BV2 microglia cells. Nature of the assay: Nitrite release (Griess reaction) in LPS-treated BV2 microglia. It counts as cell-based. Particulars: LPS 1 μg/mL, basal = 100. From the text:
The COX-1 inhibition data prompted us to undertake further work on the activity of compounds 3 in a neuroinflammation situation. Once we had verified that the compounds studied were not toxic per se in microglia BV2 cells (see the data in Table S1), we measured the nitrites released to determine the efficacy of our compounds in reducing microglia activation. Nitric oxide is a potent mediator of the classic activated microglia phenotype (M1); in fact, the lack of nitrite release correlated with an anti-inflammatory microglia (M2) phenotype. Therefore, we evaluated the response of the BV2 microglia cells to a challenge of 1 μg/mL LPS. For this purpose, BV2 microglia cells were incubated with LPS, a well-known agonist of the toll-like receptor 4 (TLR4) that causes a neuroinflammatory response, in combination with increasing concentrations of our COX-1 inhibitors (1, 3, and 10 μM). […] Similar results were observed after 48 h of the LPS treatment.
(§1) Cultures were seeded into flasks containing supplemented medium and kept at 37 °C in a humidified atmosphere of 5% CO2 and 95% air. For assays, BV-2 cells were subcultured in 48-well plates at a seeding density of 1 × 10^5 cells per well. Cells were treated with LPS (Sigma-Aldrich, Madrid, Spain) for 24 or 48 h before confluence in RPMI with 1% FBS.
The NO assay was performed using the previously reported protocols. Briefly, 100 μL of culture supernatants were mixed with the same volume of Griess assay regent (1% sulfanilamide (Sigma Aldrich, Madrid, Spain), 0.1% naphthylethylenediamine dihydrochloride, and 2.5% phosphoric acid). Ten minutes later, the 560-nm absorbance was measured.

For assay [2], the target named is T1, ovine COX-1 (Ovis aries, UniProt P05979).
T1 construct: purchased Cayman Chemicals 701050
T1 sequence (P05979 25-600): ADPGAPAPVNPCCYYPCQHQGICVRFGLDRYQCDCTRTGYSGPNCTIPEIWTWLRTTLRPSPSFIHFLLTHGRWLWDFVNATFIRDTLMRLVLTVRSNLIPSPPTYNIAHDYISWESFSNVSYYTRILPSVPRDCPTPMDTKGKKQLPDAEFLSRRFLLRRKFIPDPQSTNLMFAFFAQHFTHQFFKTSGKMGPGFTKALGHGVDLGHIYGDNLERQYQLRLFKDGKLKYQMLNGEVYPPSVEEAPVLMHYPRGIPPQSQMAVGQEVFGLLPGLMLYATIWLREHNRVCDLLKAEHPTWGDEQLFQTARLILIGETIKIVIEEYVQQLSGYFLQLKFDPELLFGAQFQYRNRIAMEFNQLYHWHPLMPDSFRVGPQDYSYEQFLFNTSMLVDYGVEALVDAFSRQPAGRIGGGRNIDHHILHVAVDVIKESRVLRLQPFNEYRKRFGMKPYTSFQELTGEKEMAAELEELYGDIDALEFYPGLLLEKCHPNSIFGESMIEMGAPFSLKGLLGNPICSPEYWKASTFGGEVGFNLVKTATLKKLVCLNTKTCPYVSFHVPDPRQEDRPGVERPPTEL
Nature of the assay: Cyclooxygenase colorimetric inhibitor screening assay, COX-1.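 As to all read-outs here: COX peroxidase activity read colorimetrically as oxidized TMPD at 590 nm, arachidonic acid as substrate, inhibitors tested at 0.001–50 µM from DMSO stocks.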 Particulars: for inhibition at 50 µM: ovine COX-1, 50 µM, % Inhibition at 50 µM (converted); for inhibition at 50 µM / IC50: read-out: oCOX-1; for IC50: ovine COX-1, colorimetric kit, triplicate. It counts as biochemical.
Description: (§2) Newly synthesized compounds were evaluated for their ability to inhibit ovine COX-1 or human COX-2 enzyme by measuring the extent (%) of enzyme activity inhibition at different concentrations (0.001, 0.01, 0.1, 1, 10, 50 μM). […] The assay kit measures the peroxidase component of COXs that is assayed colorimetrically by monitoring the appearance of oxidized N,N,N′,N′-tetramethyl-p-phenylenediamine (TMPD) a λ = 590 nm. […] Stock solutions of test compounds were dissolved in DMSO.

Assay [3] concerns the target T2, human COX-2 (Homo sapiens, UniProt P35354).
T2 construct: purchased Cayman Chemicals 701050
T2 sequence (P35354 18-604): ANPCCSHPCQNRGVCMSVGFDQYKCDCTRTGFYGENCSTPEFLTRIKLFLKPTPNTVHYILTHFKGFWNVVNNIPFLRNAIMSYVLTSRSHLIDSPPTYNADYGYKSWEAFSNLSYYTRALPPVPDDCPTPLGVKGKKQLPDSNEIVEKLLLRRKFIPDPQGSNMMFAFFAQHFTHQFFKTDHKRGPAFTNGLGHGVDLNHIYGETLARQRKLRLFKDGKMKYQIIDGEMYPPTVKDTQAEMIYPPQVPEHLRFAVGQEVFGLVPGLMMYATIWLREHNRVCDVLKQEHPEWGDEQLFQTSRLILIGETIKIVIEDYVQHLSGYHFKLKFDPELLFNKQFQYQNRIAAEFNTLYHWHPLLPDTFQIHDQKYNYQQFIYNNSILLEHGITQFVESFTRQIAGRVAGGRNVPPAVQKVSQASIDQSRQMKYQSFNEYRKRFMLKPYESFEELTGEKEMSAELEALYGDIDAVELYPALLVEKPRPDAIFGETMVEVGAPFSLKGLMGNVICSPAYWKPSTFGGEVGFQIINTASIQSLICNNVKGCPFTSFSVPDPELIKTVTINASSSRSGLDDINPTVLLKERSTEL
Nature of the assay: Cyclooxygenase colorimetric inhibitor screening assay, COX-2.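 As to all read-outs here: peroxidase activity of COX-2 followed colorimetrically through formation of oxidized TMPD at 590 nm, with arachidonic acid as substrate, compounds tested from 0.001 to 50 µM.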 Particulars: read-out: hCOX-2; for inhibition at 50 µM: human COX-2, 50 µM; for IC50: human COX-2, colorimetric kit. Type of assay: biochemical.
Description: as §2

Assay [4] deals with BV2 microglia cells. The assay can be described thus: ROS production (H2DCFDA) in LPS-treated BV2 microglia. It counts as cell-based. Particulars: LPS 1 μg/mL, 24 h.
Description: Activation of toll-like receptors (TLRs), particularly the TLR4 subtype, is closely associated with the production of reactive oxygen and nitrogen species that contribute to neuronal death in the CNS. In this connection, NADPH oxidase enzymes are the main ones responsible for ROS production induced by NF-κB nuclear translocation. For this reason, we decided to assess the ROS levels of BV2 microglia cells treated with LPS and the effect of our compounds under this toxicity protocol. To this end, the compounds, at different concentrations (3 μM of 3a, 3b, and 3d and 10 μM of 3c) were incubated with 1 μg/mL LPS for 24 h. After this period, ROS production was measured with the fluorescent probe H2DCFDA. Treatment with LPS increased by 1.75-fold the amount of ROS compared with control cells.
as §1
To measure cellular ROS, we used the molecular probe 2′,7′-dichlorodihydrofluorescein diacetate (H2DCFDA). Glial cells were loaded with 5 µM H2DCFDA as it was previously described (Parada et al., 2015). Fluorescence was measured in a fluorescence microplate reader (FLUOstar Galaxy; BMG Labtech, Offenburg, Germany). Wavelengths of excitation and emission were 485 and 520 nm, respectively. The relative pixel intensity was measured in identical regions with (ImageJ 1.52a software, National Institutes of Health, Bethesda, MD, USA).

Assay [5] concerns BV2 microglia cells. The assay can be described thus: LPS-induced activated (ramified) phenotype of BV2 microglia. Type of assay: cell-based. Particulars: LPS 1 μg/mL, 24 h.
Description: Next, we set out to study the changes in microglia phenotype under this toxicity protocol. As mentioned above, microglia are comprised of variable morphology cells that are always adapting to the surrounding media and, therefore, to physiopathological conditions. Indeed, morphological appearance is well correlated with the different states of microglia activation. The microglia-activated phenotype (M1), which is the classical state of this kind of cell in response to proinflammatory insults such as LPS, is linked with the overexpression of a plethora of cytokines and inflammatory markers, namely TNF, IL-1β, IL-6, MCP-1 or CD11b. All of these markers are commonly associated with morphological changes towards an amoeboid phenotype in primary cultures or in in vivo studies. Nevertheless, it has been recently described that BV2 microglia, as well as macrophages, turn from rounded to spindle-shaped or multipolar phenotypes in response to various M1 proinflammatory stimuli such as LPS/IFNγ or spinal cord injury conditioned media. In this context, we assessed the ability of our compounds to prevent the morphological changes induced by LPS by analyzing the percentage of BV2 ramified cells (multipolar or spindle) over the total BV2 per field following cell incubation with our compounds and 1 μg/mL LPS for 24 h.
as §1

Assay [6] deals with BV2 microglia cells. The assay can be described thus: Nitrite release (Griess reaction) in LPS-treated BV2 microglia. Type of assay: cell-based. Particulars: 100 nM, LPS 1 μg/mL, basal = 100.
Assay [7] has as its system organotypic hippocampal cultures (OHCs). Nature of the assay: Cell death (propidium iodide uptake, CA1) in organotypic hippocampal cultures treated with LPS. Type of assay: cell-based, Sprague-Dawley rats. Particulars: LPS 1 μg/mL, 24 h. The procedure: With these promising data in hand, we selected compound 3b for its study in a more complex preparation. In vivo administration of LPS produces a proinflammatory cascade that causes memory deficits, an increase of inflammatory markers, and impairment of hippocampal glutamatergic transmission, contributing to neuronal death. All of these functional changes have been described to take place mainly in the hippocampus region. Thus, we subjected organotypic hippocampal cultures (OHCs) to LPS (1 μg/mL) to assess the protective effect of COX-1 inhibition. This kind of explant allows us to study the microglia-neuron network in a more complex and physiological model of cerebral insult.
OHCs were conducted on 8–10-day-old Sprague-Dawley rats supplied by the animal facilities of Universidad Autónoma de Madrid (Madrid, Spain). Cultures were prepared according to the methods described by Stoppini et al. with some modifications. […]
Cell death was determined in the CA1 region by staining the OHCs with propidium iodide (PI). Thirty minutes before analyzing fluorescence, slices were incubated with PI (1 µg/mL). Fluorescence was measured in an epifluorescence Olympus BX50WI microscope. […] Fluorescence was measured in each slice using ImageJ.

SMILES strings stand for the structures.

For `Nc1cc(-c2ccccc2)cc(-c2ccccc2)c1` [Compound 3a, 5′-Amino-m-terphenyl], the “Nitrite Release after 24 h” value in assay [1] (1 μM) is 130 ± 14%; in assay [1] (3 μM) it was 110 ± 7 %; in assay [1] (10 μM), 122 ± 10%. For the same compound, the “Nitrite Release after 48 h” value in assay [1] (1 μM) amounted to 145 ± 17%; in assay [1] (3 μM), 119 ± 10 %; in assay [1] (10 μM), 120 ± 15 %. The inhibition at 50 µM in assay [2] was 86%; in assay [3] it was 70%. The results for the IC50 in assay [2] and in assay [3] were 0.8 ± 0.39 µM and 5.4 µM, respectively. In addition, in assay [2] (ovine COX-1 vs human COX-2), the COX-1/COX-2 inhibition ratio entry is given as “around 7”. Also, the “ROS production induced by LPS” value in assay [4] (3 μM) was “significantly reverted ROS production almost to basal levels”. Also, the “Reduction of the number of BV2 ramified cells” value (“Reduction” for short) in assay [5] (3 μM) is reported as 60%.

Regarding `COc1ccc(-c2cc(N)cc(-c3ccccc3)c2)cc1` [Compound 3e, 4-Methoxy-5′-amino-m-terphenyl], the “Nitrite Release after 24 h” value in assay [1] (1 μM) worked out at 124 ± 9%; in assay [1] (3 μM), 110 ± 6 %; in assay [1] (10 μM), 103 ± 9 %. Besides, the “Nitrite Release after 48 h” value was 144 ± 15% in assay [1] (1 μM), 133 ± 13 % in assay [1] (3 μM) and 131 ± 13 % in assay [1] (10 μM). Besides, the inhibition at 50 µM in assay [2] is 73%; in assay [3], 8%. Also, the IC50 in assay [2] is 0.9 ± 0.76 µM. For the same compound, the “Reduction” value in assay [5] (3 μM) came to 60%.

On to `Nc1cc(-c2ccccc2)cc(-c2ccc(Cl)cc2)c1` [Compound 3c, 4-Chloro-5′-amino-m-terphenyl], for which the “Nitrite Release after 24 h” value in assay [1] (1 μM) came out at 135 ± 6%; in assay [1] (3 μM), 117 ± 8%; in assay [1] (10 μM), 110 ± 6 %. In addition, the “Nitrite Release after 48 h” value in assay [1] (1 μM) is recorded as 181 ± 9%; in assay [1] (3 μM) it was 163 ± 5%; in assay [1] (10 μM), 138 ± 7%. The inhibition at 50 µM in assay [2] is 100%. In addition, the figures for the IC50 in assay [2] and in assay [3] were 4.7 ± 3.04 µM and above 50 µM, respectively. Besides, the “COX-1 selectivity (in words)” value in assay [2] (ovine COX-1 vs human COX-2) is on record as “complete selectivity towards COX-1”. Moreover, in assay [4] (3 μM), the “ROS production induced by LPS” value is recorded as “significantly reverted ROS production almost to basal levels”. Further, the “Reduction” value in assay [5] (10 μM) amounted to 60%.

In the case of `COc1ccc(-n2nc(C(F)(F)F)cc2-c2ccc(Cl)cc2)cc1` [SC-560, reference compound], the “Nitrite Release after 24 h” value in assay [6] (24 h) amounted to 114 ± 9 %. Also, the “Nitrite Release after 48 h” value in assay [6] (48 h) turned out to be 135 ± 8 %. Further, the “ROS production induced by LPS” value in assay [4] (100 nM) is listed as “significantly reverted ROS production almost to basal levels”. Moreover, the “Cell death (PI uptake in CA1) induced by LPS” value in assay [7] is listed as “prevented”.
